This note sets out measurements from the supplement of paper PMC10307832.

Holding throughout (assay): relative viability (nuclei count vs DMSO), 5 days (fraction); higher = more cells survive
Compound in test [1]: COc1cc([C@@H]2c3cc4c(cc3[C@@H](O[C@@H]3O[C@@H]5CO[C@@H](C)O[C@H]5[C@H](O)[C@H]3O)[C@H]3COC(=O)[C@H]23)OCO4)cc(OC)c1O [Etoposide] + CC(C)C[C@H](NC(=O)[C@H](Cc1ccccc1)NC(=O)c1cnccn1)B(O)O [Bortezomib] (partner 0.002 µM)
In a few lines:
(§1)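 Each reported value is a median over duplicate plates. It expresses relative viability: treated-well nuclei count divided by vehicle-well nuclei count. Lung cancer cell lines in 1536-well plates were dosed by pin tool a day after seeding, alone with one drug or with a fixed anchor-drug dose plus five library-drug doses (not always all listed) in √10 steps, and nuclei were counted after 5 days.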

Compound in test [2]: COc1cc([C@@H]2c3cc4c(cc3[C@@H](O[C@@H]3O[C@@H]5CO[C@@H](C)O[C@H]5[C@H](O)[C@H]3O)[C@H]3COC(=O)[C@H]23)OCO4)cc(OC)c1O [Etoposide] + Cc1nc(Nc2ncc(C(=O)Nc3c(C)cccc3Cl)s2)cc(N2CCN(CCO)CC2)n1 [Dasatinib] (partner 0.075 µM)
The essentials: as §1

Compound in test [3]: COc1cc([C@@H]2c3cc4c(cc3[C@@H](O[C@@H]3O[C@@H]5CO[C@@H](C)O[C@H]5[C@H](O)[C@H]3O)[C@H]3COC(=O)[C@H]23)OCO4)cc(OC)c1O [Etoposide] + Cc1cc(Nc2cc(N3CCN(C)CC3)nc(Sc3ccc(NC(=O)C4CC4)cc3)n2)n[nH]1 [Tozasertib] (partner 0.1 µM)
In a few lines:
as §1

Compound in test [4]: CC1=C(N=C(N=C1N)[C@H](CC(=O)N)NC[C@@H](C(=O)N)N)C(=O)N[C@@H]([C@H](C2=CN=CN2)OC3C(C(C(C(O3)CO)O)O)OC4C(C(C(C(O4)CO)O)OC(=O)N)O)C(=O)N[C@H](C)[C@H]([C@H](C)C(=O)N[C@@H]([C@@H](C)O)C(=O)NCCC5=NC(=CS5)C6=NC(=CS6)C(=O)NCCC[S+](C)C)O [Bleomycin] + C[C@]1(O)C[C@@H](c2nc(-c3ccc4ccc(-c5ccccc5)nc4c3)c3c(N)nccn32)C1 [Linsitinib] (partner 1 µM)
The settings on record: main component drawn. In a few lines:
as §1

Turning to UMC-11, the relative viability was found to be 0.685 in test [1] (first compound 0.01 µM); 0.777 in test [1] (first compound 0.03162 µM); 0.389 in test [1] (first compound 0.3162 µM); 0.187 in test [1] (first compound 1 µM); 0.455 in test [2] (first compound 0.01 µM); 0.38 in test [2] (first compound 0.03162 µM). For the same cell line, the relative viability in test [2] (first compound 0.1 µM) turned out to be 0.316; in test [2] (first compound 0.3162 µM), 0.38; in test [2] (first compound 1 µM), 0.259; in test [3] (first compound 0.01 µM), 0.209; in test [3] (first compound 0.03162 µM) it was 0.205; in test [3] (first compound 0.1 µM), 0.186. For the same cell line, the relative viability in test [3] (first compound 0.3162 µM) was 0.206; in test [3] (first compound 1 µM), 0.235; in test [4] (first compound 0.01 µM), 0.975; in test [4] (first compound 0.03162 µM), 0.91; in test [4] (first compound 0.1 µM), 0.863; in test [4] (first compound 0.3162 µM), 0.647. Besides, in test [4] (first compound 1 µM), the relative viability was 0.498.
